Measurements published in US20250221988A1 (Cullgen (Shanghai), Inc., priority 2022, published 2025).
Like-named read-outs stand apart in the source and are kept apart here.

How the values were obtained:
MOLM-13 cells = test: Cell viability assay (CellTiter-Glo) in MOLM-13 cells; format: cell-based
MV4;11 cells = test: Cell viability assay (CellTiter-Glo) in MV4;11 cells; format: cell-based; settings: read-out: MV4
Method in brief: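 5000 cells/well in RPMI 1640 or DMEM with 10% FBS, treated with 8- or 12-point 3-fold compound dilutions, with or without gilteritinib (10 nM for MV4;11, 20 nM for MOLM-13). Viability by CellTiter-Glo after three days; IC50 by nonlinear least-squares regression.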

[1] = Homo sapiens, 72 h, MOLM-13 cells, compound alone, three days, read-out: MOLM-13 IC50
[2] = Homo sapiens, MV4-11, 72 h, MV4;11 cells, compound alone, three days, 11 IC50
[3] = MV4;11 cells, with 10 nM gilteritinib, three days, 11 IC50 (nM) + 10 nM Gil
[4] = MOLM-13 cells, with gilteritinib, three days, read-out: MOLM-13 IC50 (nM) + 10 nM Gil

SMILES	IC50 (MOLM-13 cells; [1]) [nM]	IC50 (MV4;11 cells; [2]) [nM]	IC50 (MV4;11 cells; [3]) [nM]	IC50 (MOLM-13 cells; Homo sapiens, MOLM-13, 72 h, read-out: MOLM-13 IC50 (nM)) [nM]	IC50 (MOLM-13 cells; read-out: MOLM-13 IC50 (nM) + 10 nM Gil, MOLM-13 cells, with gilteritinib, three days) [nM]	IC50 (MV4;11 cells; Homo sapiens, MV4-11, 72 h, 11 IC50 (nM)) [nM]	IC50 (MV4;11 cells; 11 IC50 (nM) + 10 nM Gil, MV4;11 cells, with 10 nM gilteritinib, three days) [nM]	IC50 (MOLM-13 cells; [4]) [nM]
Cc1nc(-c2cn([C@H]3C[C@H](COc4ccc5c(c4)C(=O)N(C4CCC(=O)NC4=O)C5=O)C3)nc2C2CC2)ccc1F (stereo partly drawn) [GS-715, 5-((Trans-3-(3-cyclopropyl-4-(5-fluoro-6-methylpyridin-2-yl)-1H-pyrazol-1-yl)cyclobutyl)methoxy)-2-(2,6-dioxopiperidin-3-yl)isoindoline-1,3-dione]	> 1000	> 1000	100 to 1000					
CC(C)n1ncc2ccnc(-c3cn([C@H]4C[C@H](CNc5ccc6c(c5)C(=O)N(C5CCC(=O)NC5=O)C6=O)C4)nc3C3CC3)c21 (stereo partly drawn) [GS-661, 5-(((Trans-3-(3-cyclopropyl-4-(1-isopropyl-1H-pyrazolo[3,4-c]pyridin-7-yl)-1H-pyrazol-1-yl)cyclobutyl)methyl)amino)-2-(2,6-dioxopiperidin-3-yl)isoindoline-1,3-dion]				10 to 100	< 10	10 to 100	< 10	
O=C1CCC(N2C(=O)c3ccc(NC[C@H]4C[C@H](n5cc(-c6cc7c(cn6)cnn7C6CC(O)C6)c(C6CC6)n5)C4)cc3C2=O)C(=O)N1 (stereo partly drawn) [GS-763, 5-(((Trans-3-(3-cyclopropyl-4-(1-(3-hydroxycyclobutyl)-1H-pyrazolo[4,3-c]pyridin-6-yl)-1H-pyrazol-1-yl)cyclobutyl)methyl)amino)-2-(2,6-dioxopiperidin-3-yl)isoindoline-1,3-dione]	10 to 100	10 to 100	< 10					< 10
Cn1ncc2nc(-c3cn([C@H]4C[C@H](CNc5ccc6c(c5)C(=O)N(C5CCC(=O)NC5=O)C6=O)C4)nc3C3CC3)ccc21 (stereo partly drawn) [GS-699, 5-(((Trans-3-(3-cyclopropyl-4-(1-methyl-1H-pyrazolo[4,3-b]pyridin-5-yl)-1H-pyrazol-1-yl)cyclobutyl)methyl)amino)-2-(2,6-dioxopiperidin-3-yl)isoindoline-1,3-dione]	100 to 1000	10 to 100	10 to 100					10 to 100
CN1CC(c2ccc3nc(-c4cn([C@H]5C[C@H](CNc6ccc7c(c6)C(=O)N(C6CCC(=O)NC6=O)C7=O)C5)nc4C4CC4)cnc3c2)C1 (stereo partly drawn) [GS-755, 5-(((Trans-3-(3-cyclopropyl-4-(6-(1-methylazetidin-3-yl)quinoxalin-2-yl)-1H-pyrazol-1-yl)cyclobutyl)methyl)amino)-2-(2,6-dioxopiperidin-3-yl)isoindoline-1,3-dione]	10 to 100	10 to 100	< 10					< 10
Cn1ncc2cncc(-c3cn([C@H]4C[C@H](CNc5ccc6c(c5)C(=O)N(C5CCC(=O)NC5=O)C6=O)C4)nc3C3CC3)c21 (stereo partly drawn) [GS-781, 5-(((Trans-3-(3-cyclopropyl-4-(1-methyl-1H-pyrazolo[4,3-c]pyridin-7-yl)-1H-pyrazol-1-yl)cyclobutyl)methyl)amino)-2-(2,6-dioxopiperidin-3-yl)isoindoline-1,3-dione]	100 to 1000	10 to 100	< 10					10 to 100
O=C1CCC(N2C(=O)c3ccc(NC[C@H]4C[C@H](n5cc(-c6cnc7ccc(N8CCC(O)C8)cc7n6)c(C6CC6)n5)C4)cc3C2=O)C(=O)N1 (stereo partly drawn) [GS-659, 5-(((Trans-3-(3-cyclopropyl-4-(7-(3-hydroxypyrrolidin-1-yl)quinoxalin-2-yl)-1H-pyrazol-1-yl)cyclobutyl)methyl)amino)-2-(2,6-dioxopiperidin-3-yl)isoindoline-1,3-dione]	< 10	< 10	< 10					< 10
Cn1cncc1-c1cn([C@H]2C[C@H](CNc3ccc4c(c3)C(=O)N(C3CCC(=O)NC3=O)C4=O)C2)nc1C1CC1 (stereo partly drawn) [GS-691, 5-(((Trans-3-(3-cyclopropyl-4-(1-methyl-1H-imidazol-5-yl)-1H-pyrazol-1-yl)cyclobutyl)methyl)amino)-2-(2,6-dioxopiperidin-3-yl)isoindoline-1,3-dione]	> 1000	> 1000						
O=C1CCC(N2C(=O)c3ccc(NC[C@H]4C[C@H](n5cc(Nc6ccccn6)c(C6CC6)n5)C4)cc3C2=O)C(=O)N1 (stereo partly drawn) [GS-669, 5-(((Trans-3-(3-cyclopropyl-4-(pyridin-2-ylamino)-1H-pyrazol-1-yl)cyclobutyl)methyl)amino)-2-(2,6-dioxopiperidin-3-yl)isoindoline-1,3-dione]	> 1000	100 to 1000	100 to 1000					100 to 1000
O=C1CCC(N2C(=O)c3ccc(NC[C@H]4C[C@H](n5nc(C6CC6)c6cccc(N7CCNCC7)c65)C4)cc3C2=O)C(=O)N1 (stereo partly drawn) [GS-765, 5-(((Trans-3-(3-cyclopropyl-7-(piperazin-1-yl)-1H-indazol-1-yl)cyclobutyl)methyl)amino)-2-(2,6-dioxopiperidin-3-yl)isoindoline-1,3-dione]	> 1000	> 1000	100 to 1000					100 to 1000
Cc1nn([C@H]2C[C@H](CNc3ccc4c(c3)C(=O)N(C3CCC(=O)NC3=O)C4=O)C2)c2ccccc12 (stereo partly drawn) [GS-689, 2-(2,6-Dioxopiperidin-3-yl)-5-(((trans-3-(3-methyl-1H-indazol-1-yl)cyclobutyl)methyl)amino)isoindoline-1,3-dione]	100 to 1000	10 to 100	10 to 100					10 to 100
O=C1CCC(N2C(=O)c3ccc(NC[C@H]4C[C@H](n5cc(-c6ncccc6[C@H]6C[C@@H](O)C6)c(C6CC6)n5)C4)cc3C2=O)C(=O)N1 (stereo partly shown) [GS-771]	10 to 100	10 to 100	< 10					10 to 100
O=C1CCC(N2C(=O)c3ccc(NC[C@H]4C[C@H](n5cc(-c6ccc7[nH]ccc7n6)c(C6CC6)n5)C4)cc3C2=O)C(=O)N1 (stereo partly drawn) [GS-720, 5-(((Trans-3-(3-cyclopropyl-4-(1H-pyrrolo[3,2-b]pyridin-5-yl)-1H-pyrazol-1-yl)cyclobutyl)methyl)amino)-2-(2,6-dioxopiperidin-3-yl)isoindoline-1,3-dione]	100 to 1000	10 to 100	10 to 100					10 to 100
O=C1CCC(N2C(=O)c3ccc(NC[C@H]4C[C@H](n5cc(-c6cc7c(cn6)cnn7CC(F)(F)F)c(C6CC6)n5)C4)cc3C2=O)C(=O)N1 (relative stereo) [GS-704, 5-(((Trans-3-(3-cyclopropyl-4-(1-(2,2,2-trifluoroethyl)-1H-pyrazolo[4,3-c]pyridin-6-yl)-1H-pyrazol-1-yl)cyclobutyl)methyl)amino)-2-(2,6-dioxopiperidin-3-yl)isoindoline-1,3-dione]	10 to 100	10 to 100	< 10					< 10
Nc1ccnc2c1c(C1CC1)nn2[C@H]1C[C@H](CNc2ccc3c(c2)C(=O)N(C2CCC(=O)NC2=O)C3=O)C1 (stereo partly drawn) [GS-762, 5-(((Trans-3-(4-amino-3-cyclopropyl-1H-pyrazolo[3,4-b]pyridin-1-yl)cyclobutyl)methyl)amino)-2-(2,6-dioxopiperidin-3-yl)isoindoline-1,3-dione]	> 1000	> 1000						
O=C1CCC(N2C(=O)c3ccc(NC[C@H]4C[C@H](n5cc(-c6ncc(F)cc6N6CCNCC6)c(C6CC6)n5)C4)cc3C2=O)C(=O)N1 (stereo partly drawn) [GS-683, 5-(((Trans-3-(3-cyclopropyl-4-(5-fluoro-3-(piperazin-1-yl)pyridin-2-yl)-1H-pyrazol-1-yl)cyclobutyl)methyl)amino)-2-(2,6-dioxopiperidin-3-yl)isoindoline-1,3-dione]	> 1000	> 1000						
O=C1CCC(N2C(=O)c3ccc(NC[C@H]4C[C@H](n5cc(-c6ncc(F)cc6OC6CC6)c(C6CC6)n5)C4)cc3C2=O)C(=O)N1 (stereo partly drawn) [GS-752, 5-(((Trans-3-(4-(3-cyclopropoxy-5-fluoropyridin-2-yl)-3-cyclopropyl-1H-pyrazol-1-yl)cyclobutyl)methyl)amino)-2-(2,6-dioxopiperidin-3-yl)isoindoline-1,3-dione]	< 10	< 10	< 10					< 10
O=C1CCC(N2Cc3cc(NC[C@H]4C[C@H](n5cc(-c6cnc7ccccc7n6)c(C6CC6)n5)C4)ccc3C2=O)C(=O)N1 (stereo partly drawn) [GS-651, 3-(5-(((trans-3-(3-Cyclopropyl-4-(quinoxalin-2-yl)-1H-pyrazol-1-yl)cyclobutyl)methyl)amino)-1-oxoisoindolin-2-yl)piperidine-2,6-dione]	10 to 100	< 10	< 10					< 10
O=C1CCC(N2C(=O)c3ccc(NC[C@H]4C[C@H](n5cc(-c6cccc(N7CCCC7)n6)c(C6CC6)n5)C4)cc3C2=O)C(=O)N1 (relative stereo) [GS-748, 5-(((Trans-3-(3-cyclopropyl-4-(6-(pyrrolidin-1-yl)pyridin-2-yl)-1H-pyrazol-1-yl)cyclobutyl)methyl)amino)-2-(2,6-dioxopiperidin-3-yl)isoindoline-1,3-dione]	10 to 100	10 to 100	< 10					< 10
Cc1nc(-c2cn([C@H]3C[C@H](CNc4ccc5c(c4)CN(C4CCC(=O)NC4=O)C5=O)C3)nc2C(F)F)ccc1F (stereo partly drawn) [GS-677, 3-(5-(((Trans-3-(3-(difluoromethyl)-4-(5-fluoro-6-methylpyridin-2-yl)-1H-pyrazol-1-yl)cyclobutyl)methyl)amino)-1-oxoisoindolin-2-yl)piperidine-2,6-dione]	< 10	< 10	< 10					< 10
